Measurements reported in patent US5196428A, “Imidazo[4,5-b]qinolinyl oxy alkyl ureas” (Bristol-Myers Squibb Company, priority 1992, dated 1993).
≈ marks a conversion by molar mass, not a printed value. Counter-ions that a name gives are not always drawn. Like-named read-outs stand apart in the source and are kept apart here.

Columns and labels:
Aqueous solubility = assay type: physicochemical; conditions: water
[1] = system: human blood platelets in platelet-rich-plasma (ADP-induced aggregation); assay: In vitro inhibition of ADP-induced human platelet aggregation (aggregometer method of Born); assay type: cell-based
Description: The aggregometer method of Born, G. V. R., J. Physiol., (London), 162, 67-68, (1962) as modified by Mustard, J. F., et al., J. Lab. Clin. Med., 64, 548-599, (1964) was used to assess the in vitro activity of the various compounds as to the inhibition of adenosine diphosphate (ADP) and collagen-induced platelet aggregation. The human volunteer donor's arm is cleansed with 70% ethyl alcohol. A sterile 20 ml syringe and needle are used to withdraw 20 ml of blood. The blood is immediately added to a test tube containing 3.8% sodium citrate to prevent clotting (1 part citrate to 9 parts blood).
Platelet rich plasma (PRP) was separated by centrifugation for 10 minutes at 1000 rpm (140 g) from citrated (3.8%) human blood. All glassware used for preparation of PRP is silicon treated. ADP in final concentration of 0.5 mcg/mL or 0.05 mL of a collagen suspension prepared according to the method described by Evans, G., et al., J. Exp. Med., 128, 877-894, (1968) was used to induce aggregation. The various compounds tested were dissolved in dimethylsulfoxide (DMSO) so that 5 mcl added to the platelet rich plasma would yield the desired test concentration. Vehicle control trials were done and compared with aggregation induced in platelet rich plasma containing various concentrations of the test compounds. Dose response curves were obtained and Inhibitor Concentration (IC50) values calculated.
The target compounds were evaluated as inhibitors of ADP-induced aggregation of human blood platelets in platelet-rich-plasma (PRP) in vitro.

[2] = 0.05 h, ADP 0.5 mcg/mL, human PRP, standard protocol: about 3 minutes incubation prior to agonist, read-out: IC50 vs ADP in human PRP

Row | Structure (SMILES) | solubility (Aqueous solubility) [µg/mL] | IC50 [1, 2] [µg/mL] | IC50 ([1]; Homo sapiens, incubation with PRP for about 15 minutes prior to adding ADP, read-out: observed IC50, ADP-induced aggregation) [µg/mL] | IC50 ([1]; Homo sapiens, read-out: concentration providing 50% inhibition of ADP-induced aggregation, incubation with PRP for about 3 minutes prior to addition of the agonist) [µg/mL]
1 | CCOC(=O)NCCCOc1ccc2nc3[nH]c(=O)[nH]c3cc2c1 [Cmpd 7a] | < 10000 | 0.035 (≈ 0.106 µM) |  | 
2 | CN(C(=O)NCCCOc1ccc2nc3[nH]c(=O)[nH]c3cc2c1)C1CCCCC1 [Cmpd 7b, N-Cyclohexyl-N'-[3-[(2,3-dihydro-2-oxo-1H-imidazo[4,5-b]quinolin-7-yl)oxy]propyl]-N-methylurea] | < 10000 | 0.04 (≈ 0.101 µM) |  | 
3 | Cl.O=C(NCCCOc1ccc2nc3[nH]c(=O)[nH]c3cc2c1)NC1CCCCC1 [Cmpd 7c, N-Cyclohexyl-N'-[3-[(2,3-dihydro-2-oxo-1H-imidazo[4,5-b]quinolin-7-yl)oxy]propyl]urea hydrochloride] | < 10000 | 0.3 |  | 
4 | O=C(NCCCOc1ccc2nc3[nH]c(=O)[nH]c3cc2c1)N1CCOCC1 [Cmpd 7d] | < 10000 | 1.2 (≈ 3.23 µM) |  | 
5 | Cl.O=C(NCCCOc1ccc2nc3[nH]c(=O)[nH]c3cc2c1)N1CCC(Cc2ccccc2)CC1 [Cmpd 7e, N-[3-(2,3-dihydro-2-oxo-1H-imidazo[4,5-b]quinolin-7yloxy)propyl]-4-(phenylmethyl)-1-piperidinecarboxamide hydrochloride] | < 200 | 0.08 |  | 
6 | Cl.Cl.O=C(NCCCOc1ccc2nc3[nH]c(=O)[nH]c3cc2c1)N1CCN(CC2CCCCC2)CC1 [Cmpd 7f, 4-(Cyclohexylmethyl)-N-[3-(2,3-dihydro-2-oxo-1H-imidazo[4,5-b]quinolin-7yloxy)propyl]-1-piperazinecarboxamide dihydrochloride] | > 20000 | 0.04 |  | 
7 | O=C(NCCCOc1ccc2nc3[nH]c(=O)[nH]c3cc2c1)N1CCN(CC2CCCCCC2)CC1 [Cmpd 7g, 4-(Cycloheptylmethyl)-N-[3-(2.3-dihydro-2-oxo-1H-imidazo[4,5-b]quinolin-7yloxy)propyl]-1piperazinecarboxamide dihydrochloride] | 2000 | 0.03 |  | 
8 | Cl.Cl.O=C(NCCCOc1ccc2nc3[nH]c(=O)[nH]c3cc2c1)N1CCN(CC2CCCC2)CC1 [Cmpd 7h, 4-(Cyclopentylmethyl)-N-[3-(2,3-dihydro-2-oxo-1H-imidazo[4,5-b]quinolin-7yloxy)propyl]-1-piperazinecarboxamide dihydrochloride] | 700 | 0.05 |  | 
9 | Cl.Cl.O=C(NCCCOc1ccc2nc3[nH]c(=O)[nH]c3cc2c1)N1CCN(CCC2CCCCC2)CC1 [Cmpd 7i, 4-(Cyclohexylethyl)-N-[3-(2,3-dihydro-2-oxo-1H-imidazo [4,5-b]quinolin-7yloxy)propyl]-1-piperazinecarboxamide dihydrochloride] | 500 | 0.04 |  | 
10 | O=C(NCCCOc1ccc2nc3[nH]c(=O)[nH]c3cc2c1)N1CCN(CC2CCCCO2)CC1 (stereo not drawn) [Cmpd 7j, N-[3-(2,3-dihydro-2-oxo-1H-imidazo[4,5-b]quinolin-7yloxy)propyl-4-(tetrahydro-2H-pyran-2-yl)methyl]-1-piperazinecarboxamide dihydrochloride ethanol solvate] | > 20000 | 0.09 |  | 
11 | CC(C)CN1CCN(C(=O)NCCCOc2ccc3nc4[nH]c(=O)[nH]c4cc3c2)CC1.Cl.Cl [Cmpd 7k, N-[3-(2,3-dihydro-2-oxo-1H-imidazo[4,5-b]quinolin-7yloxy)propyl]-4-(2-methylpropyl]-1-piperazinecarboxamide dihydrochloride] | > 20000 | 0.09 |  | 
12 | CCC(CC)CN1CCN(C(=O)NCCCOc2ccc3nc4[nH]c(=O)[nH]c4cc3c2)CC1.Cl.Cl [Cmpd 7l, N-[3-(2,3-dihydro-2-oxo-1H-imidazo[4,5-b]quinolin-7yloxy)propyl]-4-(2-ethylbutyl)-1-piperazinecarboxamide dihydrochloride] | > 20000 | 0.022 |  | 
13 | CCCC(CCC)CN1CCN(C(=O)NCCCOc2ccc3nc4[nH]c(=O)[nH]c4cc3c2)CC1.Cl.Cl [Cmpd 7m, N-[3-(2,3-dihydro-2-oxo-1H-imidazo[4,5-b]quinolin-7yloxy)propyl]-4-(2-propylpentyl]-1-piperazinecarboxamide dihydrochloride] | 500 | 0.07 |  | 
14 | O=C(NCCCOc1ccc2nc3[nH]c(=O)[nH]c3cc2c1)N1CCNCC1 [Cmpd 7n, N-[3-(2.3-dihydro-2-oxo-1H-imidazo4.5-b]quinolin-7yloxy)propyl]-1-piperazinecarboxamide dihydrochloride ethanol solvate] | < 500 | 3.8 |  | 
15 | O=C(NCCCOc1ccc2nc3[nH]c(=O)[nH]c3cc2c1)N1CCN(Cc2ccccc2)CC1 [Cmpd 7o, N-[3-(2,3-dihydro-2-oxo-1H-imidazo[4,5-b]quinolin-7yloxy)propyl]-4-(phenylmethyl)-1-piperazinecarboxamide dihydrochloride ethanol solvate] | > 20000 | 0.18 |  | 
16 | O=C(NCCCOc1ccc2nc3[nH]c(=O)[nH]c3cc2c1)N1CCN(Cc2ccc(Cl)cc2)CC1 [Cmpd 7p, N-[3-(2,3-dihydro-2-oxo-1H-imidazo[4,5-b]quinolin-7yloxy)propyl]-4-(4-chlorophenyl)methyl)-1-piperazine carboxamide dihydrochloride] | 200 | 0.17 |  | 
17 | O=C(NCCCOc1ccc2nc3[nH]c(=O)[nH]c3cc2c1)N1CCN(Cc2ccc(F)cc2)CC1 [Cmpd 7q, N-[3-(2,3-dihydro-2-oxo-1H-imidazo[4,5-b]quinolin-7yloxy)propyl]-4-[(4-fluorophenyl)methyl)-1-piperazine carboxamide dihydrochloride ethanol solvate] | > 20000 | 0.205 |  | 
18 | O=C(NCCCOc1ccc2nc3[nH]c(=O)[nH]c3cc2c1)N1CCN(CCc2ccccc2)CC1 [Cmpd 7r, N-[3-(2,3-dihydro-2-oxo-1H-imidazo[4,5-b]quinolin-7yloxy)propyl]-4-[(2-phenylethyl)-1-piperazinecarboxamidedihydrochloride] | 250 | 0.17 |  | 
19 | O=C(NCCCOc1ccc2nc3[nH]c(=O)[nH]c3cc2c1)N1CCN(Cc2cccs2)CC1 [Cmpd 7s, N-[3-(2,3-dihydro-2-oxo-1H-imidazo[4,5-b]quinolin-7yloxy)propyl]-4-[(2-thienyl)methyl)-1-piperazinecarboxamide dihydrochloride ethanol solvate] | > 10000 | 0.09 |  | 
20 | O=C(NCCCOc1ccc2nc3[nH]c(=O)[nH]c3cc2c1)N1CCN(Cc2ccsc2)CC1 [Cmpd 7t, N-3-(2,3-dihydro-2-oxo-1H-imidazo[4,5-b]quinolin-7yloxy)propyl]-4-[(3-thienyl)methyl)-1-piperazinecarboxamide dihydrochloride] | 3000 | 0.15 |  | 
21 | Cl.Cl.O=C(NCCCOc1ccc2nc3[nH]c(=O)[nH]c3cc2c1)N1CCC(N2CCCCC2)CC1 [Cmpd 7u, N-[3-(2,3-dihydro-2-oxo-1H-imidazo[4,5-b]quinolin-7yloxy)propyl]-4-(1-piperidinyl)-1-piperidinecarboxamide dihydrochloride] | > 20000 | 5.2 |  | 
22 | Cl.Cl.O=C(NCCCOc1ccc2nc3[nH]c(=O)[nH]c3cc2c1)N1CCN(c2ncccn2)CC1 [Cmpd 7v, N-[3-(2,3-dihydro-2-oxo-1H-imidazo[4,5-b]quinolin-7yloxy)propyl]-4-(2-pyrimidinyl)-1-piperazinecarboxamide dihydrochloride] | 100 | 0.17 |  | 
23 | O=C(NCCCOc1ccc2nc3[nH]c(=O)[nH]c3cc2c1)N1CCN(c2ccccn2)CC1 [Cmpd 7w, N-[3-(2,3-dihydro-2-oxo-1H-imidazo[4,5-b]quinolin-7yloxy)propyl]-4-(2-pyridyl)-1-piperazinecarboxamide dihydrochloride ethanol solvate] | 500 | 0.38 |  | 
24 | O=C(CCCOc1ccc2nc3[nH]c(=O)[nH]c3cc2c1)N1CCN(CC2CCCCC2)CC1 [formula (3) compound, reference compound] |  |  | 0.041 | 0.182
